Positions of bridges follow the written chain, without caps; N, C: chain ends. Non-standard residues stand in square brackets, D forms with d. Residues, ends and D or L forms follow the SMILES beside them. Phe(3,4,5-F3) = N[C@@H](Cc1cc(F)c(F)c(F)c1)C(=O)O; Phe(3,5-F2) = N[C@@H](Cc1cc(F)cc(F)c1)C(=O)O; Hyp = O=C(O)[C@@H]1C[C@@H](O)CN1
Assays:
[1] = target: T1, α3β1 integrin-expressing U-87MG glioblastoma cells (Homo sapiens, UniProt P26006); assay: biochemical; format: binding; conditions: for Relative binding index: peptide 0.4 μM competing with 0.5 μM LXY1-biotin on U-87MG cells, relative to LXY1, greater RBI = higher affinity; for IC50: series of concentrations competing with 0.5 μM LXY1-biotin binding to U-87MG cells
T1 construct: we incubated U-87MG cells which express α3β1 integrin; endogenous in cells; host or cells: U-87MG human glioblastoma cells
Description: (§1) Confluent tumor cells (80-90 %) were dissociated with 0.05 % trypsin-EDTA and neutralized with culture medium. To determine the expression of α3 and β1 integrins, 1 μg of anti-α3 or anti-β1 antibody was mixed with 1 million cells for 30 min, followed by anti-mouse IgG-PE incubation and flow cytometry (Coulter XL-MCL). […] Then each sample was washed three times with 1 mL PBS containing 1 % FBS. Samples thereafter were incubated with a 1:500 dilution of streptavidin-PE (1 mg/mL) for 30 min on ice followed by a single wash with 1 mL of PBS containing 1 % FBS. Finally, the samples in PBS were analyzed by flow cytometry. […] The mixture was then incubated with cancer cells followed by streptavidin-PE. Samples were analyzed by flow cytometry, and mean fluorescence intensity (MFI) was decided for each individual sample. […] For blocking experiments, the samples were incubated with non-biotinylated LXY30, anti-α3, or anti-β1 antibody for 30 min prior to incubation with 20 nM biotinylated LXY30.

[2] = system: subcutaneous U-87MG xenograft tumors; assay: In vivo NIRF optical imaging, subcutaneous xenograft; parameters: species or system nude mice; conditions: for improvement in tumor targeting over LXY1: optical imaging, U-87MG glioblastoma xenograft model, data not shown
From the text: Halogen lamp light source was set to maximum.

[3] = target: T2, α3 subunit of α3β1 integrin on U-87MG cells (Homo sapiens, UniProt P26006); assay: Blocking of LXY30-biotin binding to U-87MG cells, flow cytometry; conditions: 100 μM free peptide pre-incubated 30 min before 20 nM LXY30-biotin
T2 construct: we incubated U-87MG cells which express α3β1 integrin; endogenous in cells; host or cells: U-87MG human glioblastoma cells
Description: as §1, with “(80–90” for “(80-90”
Fig. 2 Synthesis and chemical structures of several peptide conjugates and binding specificity of LXY30 to U-87MG cells. The synthesis and chemical structures of peptide conjugates LXY30-biotin, LXY30-FITC, and scrambled-LXY30-FITC (S-LXY30-FITC) used for in vitro and in vivo characterization, as well as imaging studies were shown (a). […]

[4] = In vitro stability assay in human plasma; format: in vitro ADME; conditions: 90% human plasma (EDTA, healthy donors); 200 µM in 90% human plasma, 37°C, up to 8 days, RP-HPLC; t1/2=1/kobs·ln(2)
Description: Figure S3. The in vitro stability of LXY30 in human plasma. LXY30 was incubated with 90% human plasma from healthy donor at 37°C for up to 8 days. The peptide concentrations were determined by integration of the LXY30 peak (area) from reversed-phase high-performance liquid chromatography (RP-HPLC) chromatograms at UV 214 nm. The half-life of LXY30 in the plasma was calculated as 16.0 days using the formula t1/2=1/kobs·ln(2). Assays were performed in triplicate.
Human plasma was separated from the peripheral blood collected in the EDTA-containing blood collection tube from healthy donors. One hundred microliters of LXY30 solution (2 mM in water) was mixed with 900 µL of plasma (final concentration of LXY30 was 200 µM) and incubated at 37°C under sterile conditions. […] A control plasma sample without LXY30 but treated in the same manner was also analyzed. […]
RP-HPLC analysis was performed on the Waters 2996 HPLC system equipped with a Luna® analytical column from Phenomenex (5 µm, C18, 100 A°, 250 x 4.6 mm). […] The relative concentrations of the remaining LXY30 were analyzed by the integration of the absorbance at 214 nm (area).
Half-life (t1/2) for LXY30 in the plasma solution was calculated from plots of the natural logarithm of the residual concentration against time using the formula t1/2=1/kobs·ln(2), where kobs is the apparent first order rate constant for the observed degradation.

A549 = assay: LXY30 binding by flow cytometry; parameters: species or system human; conditions: 1µM LXY30; A549, lung, adenocarcinoma
Description: as §1, with “(80–90” for “(80-90”
(§2) *(MFI W/ LXY30)/ (MFI W/O LXY30): Mean Fluorescence Intensity of cells incubated with 1µM LXY30 divided by Mean Fluorescence Intensity of cells without incubation with LXY30.
(§3) Mean Fluorescence Intensity (MFI) was used as the quantitative measurement. The binding strength was grouped into five categories based on the value. “0”: 1 “1+”: 1.1~4.9 “2+”: 5~19.9 “3+”: 20~79.9 “4+”: > or = 80-fold

BT-20 = assay: LXY30 binding by flow cytometry; parameters: species or system human; conditions: 1µM LXY30; BT-20, breast, basal like
Description: as §1, with “(80–90” for “(80-90”
as §2, §3

H1650 = assay: LXY30 binding by flow cytometry; parameters: species or system human; conditions: 1µM LXY30; H1650, lung, bronchoalveolar
Description: as §1, with “(80–90” for “(80-90”
as §2, §3

H1975 = assay: LXY30 binding by flow cytometry; parameters: species or system human; conditions: 1µM LXY30; H1975, lung, adenocarcinoma
Description: as §1, with “(80–90” for “(80-90”
as §2, §3

H2228 = assay: LXY30 binding by flow cytometry; parameters: species or system human; conditions: 1µM LXY30; H2228, lung, adenocarcinoma
Description: as §1, with “(80–90” for “(80-90”
as §2, §3

H3255 = assay: LXY30 binding by flow cytometry; parameters: species or system human; conditions: 1µM LXY30; H3255, lung, adenocarcinoma
Description: as §1, with “(80–90” for “(80-90”
as §2, §3

H460 = assay: LXY30 binding by flow cytometry; parameters: species or system human; conditions: 1µM LXY30; H460, lung, large cell
Description: as §1, with “(80–90” for “(80-90”
as §2, §3

HCC827 = assay: LXY30 binding by flow cytometry; parameters: species or system human; conditions: 1µM LXY30; HCC827, lung, adenocarcinoma
Description: as §1, with “(80–90” for “(80-90”
as §2, §3

MCF7 = assay: LXY30 binding by flow cytometry; parameters: species or system human; conditions: 1µM LXY30; MCF7, breast, luminal A
Description: as §1, with “(80–90” for “(80-90”
as §2, §3

MDA-MB 231 = assay: LXY30 binding by flow cytometry; parameters: species or system human; conditions: 1µM LXY30; MDA-MB 231, breast, basal like
Description: as §1, with “(80–90” for “(80-90”
as §2, §3

SKBR3 = assay: LXY30 binding by flow cytometry; parameters: species or system human; conditions: 1µM LXY30; SKBR3, breast, HER2
Description: as §1, with “(80–90” for “(80-90”
as §2, §3

T47D = assay: LXY30 binding by flow cytometry; parameters: species or system human; conditions: 1µM LXY30, breast, luminal A
Description: as §1, with “(80–90” for “(80-90”
as §2, §3

T1 sequence (P26006 33-872 limits assumed): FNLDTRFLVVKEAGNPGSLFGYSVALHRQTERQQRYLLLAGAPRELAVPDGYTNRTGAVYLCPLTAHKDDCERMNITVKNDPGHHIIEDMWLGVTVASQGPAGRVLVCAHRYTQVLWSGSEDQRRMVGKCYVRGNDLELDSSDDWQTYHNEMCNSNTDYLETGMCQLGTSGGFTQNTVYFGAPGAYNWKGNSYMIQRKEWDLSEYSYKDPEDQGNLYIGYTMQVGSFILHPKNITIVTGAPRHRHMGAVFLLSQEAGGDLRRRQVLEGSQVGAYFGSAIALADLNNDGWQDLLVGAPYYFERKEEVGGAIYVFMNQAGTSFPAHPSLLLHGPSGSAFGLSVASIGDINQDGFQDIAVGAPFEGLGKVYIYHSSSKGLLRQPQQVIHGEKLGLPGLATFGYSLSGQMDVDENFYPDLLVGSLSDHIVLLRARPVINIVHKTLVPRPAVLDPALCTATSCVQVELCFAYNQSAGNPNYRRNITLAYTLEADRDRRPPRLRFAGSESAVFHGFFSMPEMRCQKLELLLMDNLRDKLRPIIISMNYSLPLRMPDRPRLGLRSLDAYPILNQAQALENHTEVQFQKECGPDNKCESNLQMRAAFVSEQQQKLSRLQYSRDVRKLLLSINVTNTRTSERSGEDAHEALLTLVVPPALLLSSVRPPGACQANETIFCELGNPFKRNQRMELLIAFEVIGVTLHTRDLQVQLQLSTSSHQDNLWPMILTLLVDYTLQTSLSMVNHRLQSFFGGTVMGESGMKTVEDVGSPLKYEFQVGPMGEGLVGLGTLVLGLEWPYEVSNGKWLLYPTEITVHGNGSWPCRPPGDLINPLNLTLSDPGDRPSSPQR
T1 sequence (P26006 873-1051 partner limits assumed): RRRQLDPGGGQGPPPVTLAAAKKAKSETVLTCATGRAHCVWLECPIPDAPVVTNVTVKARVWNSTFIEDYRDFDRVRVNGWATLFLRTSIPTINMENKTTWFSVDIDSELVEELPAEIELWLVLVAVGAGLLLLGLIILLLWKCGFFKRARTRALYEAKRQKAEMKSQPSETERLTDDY
T1 sequence (P05556 21-798 partner): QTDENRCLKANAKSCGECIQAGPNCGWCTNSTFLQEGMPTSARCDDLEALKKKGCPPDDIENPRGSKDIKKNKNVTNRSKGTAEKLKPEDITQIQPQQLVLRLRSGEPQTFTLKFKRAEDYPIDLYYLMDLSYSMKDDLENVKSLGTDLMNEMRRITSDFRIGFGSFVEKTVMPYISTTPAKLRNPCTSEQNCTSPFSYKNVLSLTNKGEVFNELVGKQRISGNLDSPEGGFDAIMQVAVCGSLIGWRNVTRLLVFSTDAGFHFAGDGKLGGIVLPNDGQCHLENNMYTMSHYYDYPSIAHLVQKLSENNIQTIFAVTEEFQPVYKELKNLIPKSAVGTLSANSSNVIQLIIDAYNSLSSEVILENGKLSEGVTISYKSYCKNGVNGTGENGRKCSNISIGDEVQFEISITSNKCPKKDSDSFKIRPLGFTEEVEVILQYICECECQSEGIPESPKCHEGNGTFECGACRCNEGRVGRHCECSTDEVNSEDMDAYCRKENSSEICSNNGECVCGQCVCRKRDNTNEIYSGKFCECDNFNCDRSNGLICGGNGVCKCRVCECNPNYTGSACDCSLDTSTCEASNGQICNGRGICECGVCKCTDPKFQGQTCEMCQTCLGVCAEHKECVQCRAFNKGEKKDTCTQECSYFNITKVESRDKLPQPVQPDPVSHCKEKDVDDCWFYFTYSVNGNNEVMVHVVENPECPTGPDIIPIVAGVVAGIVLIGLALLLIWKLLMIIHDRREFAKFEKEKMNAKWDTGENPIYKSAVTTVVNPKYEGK
T2 sequence (P26006 33-872 limits assumed): as the sequence (P26006 33-872 limits assumed) above
T2 sequence (P26006 873-1051 partner limits assumed): as the sequence (P26006 873-1051 partner limits assumed) above
T2 sequence (P05556 21-798 partner): as the sequence (P05556 21-798 partner) above

## NC(=O)C[C@@H]1NC(=O)[C@@H]2C[C@@H](O)CN2C(=O)CNC(=O)[C@H](Cc2cc(F)cc(F)c2)NC(=O)CNC(=O)[C@@H](CC(=O)O)NC(=O)[C@H](N)CSSC[C@H](C(N)=O)NC1=O [LXY4, cdG-Phe(3,5-diF)-G-Hyp-Nc] (H-[dC][dD]G[Phe(3,5-F2)]G[Hyp]N[dC]-NH2; disulfide 1-8; N-terminus assumed)
[1]
  Relative binding index: 1.36 ± 0.11
  IC50: 410 ± 30 nM
[2]
  improvement in tumor targeting over LXY1: did not show improvement

## N=C(N)NCCC[C@H](NC(=O)[C@H]1CSSC[C@@H](N)C(=O)N[C@H](CC(=O)O)C(=O)NCC(=O)N[C@@H](Cc2cc(F)c(F)c(F)c2)C(=O)NCC(=O)N2C[C@H](O)C[C@H]2C(=O)N[C@@H](CC(N)=O)C(=O)N1)C(N)=O [LXY7] (H-[dC][dD]G[Phe(3,4,5-F3)]G[Hyp]N[dC]R-NH2; disulfide 1-8; N-terminus assumed)
[1]
  Relative binding index: 1.62 ± 0.10
  IC50: 130 ± 12 nM

## N=C(N)NCCC[C@H](NC(=O)[C@H]1CSSC[C@@H](N)C(=O)N[C@H](CC(=O)O)C(=O)NCC(=O)N[C@@H](Cc2cc(F)cc(F)c2)C(=O)NCC(=O)N2C[C@H](O)C[C@H]2C(=O)N[C@@H](CC(N)=O)C(=O)N1)C(N)=O [LXY30, cdG-Phe(3,5-diF)-G-Hyp-NcR] (H-[dC][dD]G[Phe(3,5-F2)]G[Hyp]N[dC]R-NH2; disulfide 1-8; N-terminus assumed)
[1]; U-87MG cells, from IC50 values
  fold higher binding affinity compared to LXY1: 44 fold
[1]
  Relative binding index: 1.68 ± 0.10
  IC50: 80 ± 10 nM
[3]
  blocking of LXY30-biotin binding by free peptide: inhibited or prevented
[2]; tail vein, 1.8 nmol complex, ROI on xenograft tumor
  MFI of tumor, fold over LXY1: 1.4 folds
[4]
  half-life at 200 µM: 16 days
A549
  (MFI W/ LXY30)/ (MFI W/O LXY30): 4+ (“4+”: > or = 80-fold)
BT-20
  (MFI W/ LXY30)/ (MFI W/O LXY30): 2+ (“2+”: 5~19.9)
H1650
  (MFI W/ LXY30)/ (MFI W/O LXY30): 4+ (“4+”: > or = 80-fold)
H1975
  (MFI W/ LXY30)/ (MFI W/O LXY30): 4+ (“4+”: > or = 80-fold)
H2228
  (MFI W/ LXY30)/ (MFI W/O LXY30): 4+ (“4+”: > or = 80-fold)
H3255
  (MFI W/ LXY30)/ (MFI W/O LXY30): 2+ (“2+”: 5~19.9)
H460
  (MFI W/ LXY30)/ (MFI W/O LXY30): 1+ (“1+”: 1.1~4.9)
HCC827
  (MFI W/ LXY30)/ (MFI W/O LXY30): 4+ (“4+”: > or = 80-fold)
MCF7
  (MFI W/ LXY30)/ (MFI W/O LXY30): 2+ (“2+”: 5~19.9)
MDA-MB 231
  (MFI W/ LXY30)/ (MFI W/O LXY30): 4+ (“4+”: > or = 80-fold)
SKBR3
  (MFI W/ LXY30)/ (MFI W/O LXY30): 1+ (“1+”: 1.1~4.9)
T47D
  (MFI W/ LXY30)/ (MFI W/O LXY30): 1+ (“1+”: 1.1~4.9)

## cdG-Tyr(3-NO2)-G-Hyp-Nc [LXY3]
[2]
  improvement in tumor targeting over LXY1: did not show improvement

Source: PMC4769701, “Discovery and characterization of a high-affinity and high-specificity peptide ligand LXY30 for in vivo targeting of α3 integrin-expressing human tumors” (EJNMMI Research, 2016)
